Results reported in US9707239B2, “Compounds that modulate oxidative stress” (vTv Therapeutics LLC, priority 2011, dated 2017).
Entries after “also recorded” stand apart in the source; their conditions may differ.

Legend:
human Bach1 = test: MARE controlled luciferase reporter gene assay in HepG2 cells with or without Bach1 expression; assay type: cell-based; settings: transient transfection, with or without Bach1 expressing plasmid, FIG. 7
Description: The ability of Compound 13 to act in a manner similar to CoPP provides evidence for the hypothesis that Bach1 activity is being modulated by the compounds. […] To that end, expression vectors were prepared which contained the HMOX1 mARE promoter element recognized by both Bach1 and Nrf2. This element was placed in control of the reporter gene luciferase. Under conditions of transient transfection of HepG2 cells, the reporter has a low level of basal activity due to the relative ratio of Bach1 and Nrf2 found in the cell. Co-transfection with a Bach1 expressing plasmid leads to repression of luciferase activity. Therefore, one can test whether the compounds can increase the level of luciferase in the cells, thus overcoming Bach1 repression. […] Thus, the tested compound is able to overcome suppression by additional Bach1.

HMOX1 [1] = test: HMOX1 induction in human bone marrow-derived mesenchymal stem cells (Western blotting); assay type: cell-based; settings: BMMSC, 3 and 10 days of exposure, FIG. 9
Description: Previous work has shown that HMOX1 expression can suppress the differentiation of human bone marrow mesenchymal stem cells (BMMSC) into adipocytes, a process termed adipogenesis [Li et al., Diabetes 57(6):1526-1535 (2008)]. As such, we tested Bach1 modulators for the ability to suppress BMMSC differentiation into adipocytes in the presence of high glucose containing media. Two Bach1 modulators and a null compound were tested to determine the ability of the compounds to induce HMOX1 after 3 and 10 days of exposure to compound.

HMOX1 [2] = test: HMOX1 induction in NHLF cells in the cisplatin cytoprotection model; assay type: cell-based, human; settings: compound 24 hours prior to cisplatin, FIG. 8
Description: (§1) A key outcome of Bach1 derepression and Nrf2 activation are the induction of cytoprotective genes. A method to test such cytoprotection is to assess the ability of a compound to protect normal human cells such as lung fibroblasts from toxicity due to cisplatin exposure. A model of cellular cytoprotection was established whereby normal human lung fibroblasts were treated with Bach1 modulators and then subsequently exposed to cisplatin. NHLF cells are very sensitive to cisplatin exposure; following a dose of 200 uM cisplatin, >90% of NHLF cells are propidium iodide positive, a measure of cell death.

NHLF cells [3] = test: Cytoprotection of cisplatin (CDDP)-treated NHLF cells (propidium iodide staining); assay type: cell-based; settings: NHLF cells, compound 24 hours prior to cisplatin exposure, FIG. 8
Description: as §1

[4] = test system: human bone marrow mesenchymal stem cells (BMMSC); test: Differentiation of bone marrow mesenchymal stem cells to adipocytes (Oil Red staining); assay type: cell-based; settings: high glucose, 21 days continuous exposure, FIG. 10
Excerpt: In this assay, the cells are continuously exposed to compound for 21 days and then tested for the presence of oil-Red staining lipid droplets.

Nrf2 = test: HMOX1 mRNA induction after Nrf2 siRNA silencing; assay type: cell-based, human; settings: NHLF cells, 50 nM siRNA 48 hours, FIG. 5
Description: Small interfering RNA targeting Nrf-2 (cat# SI03246614) or KEAP-1 (cat# SI03246439) were obtained from Qiagen at 20 nmol/tube. Negative control siRNA (cat#1027280) was also obtained from Qiagen. Lyophilized siRNA in each tube was resuspended with 1 ml of the provided siRNA Suspension Buffer to make a stock solution of 20 μM and tubes were heated at 90° C. for one minute and then at 37° C. for one hour prior to initial use.
Normal human lung fibroblasts were plated at 5000 cells/well in 96-well plates and allowed to attach. Prior to experiments, well s containing the cells were refreshed with 30 μl of complete growth medium. For each siRNA type, a 4× concentration (200 nM) of siRNA was prepared by adding 11 μl of siRNA stock into 1.1 ml of serum-free medium containing 9 μl/ml of SILENTFECT Lipid Reagent (BioRad, cat#170-3361). This solution was incubated at room temperature for 20 minutes prior to adding 10 μl into each well for a final concentration of 50 nM siRNA. Cells were incubated with siRNA for 48 hours, after which they were treated with compound for either 5 hours (QuantiGene RNA assay) or 15 hours (protein immunofluorescence assay).
The predicted response profile is that silencing of Nrf2 should reduce the amount of HMOX1 induction by Compound 13 and other HMOX1 inducers that are electrophiles or reactive compounds. To that end, Compound 13 and other tool compounds were tested in cells that were treated with siRNA directed to Nrf2. Following gene silencing with specific siRNA or control siRNA, the ability of tool compounds to induce HMOX1 mRNA was determined.

HMOX1 [5] = test: Effect of NAC on compound induction of HMOX gene expression; assay type: cell-based, human; settings: NHLF cells pretreated with 5 mM NAC 1 hr, compound 6 h, FIG. 4
Description: NHLF cells were grown to 80% confluency and harvested by washing once with HEPES and then trypsinizing. Equal numbers (7×10^4 cells per well) of NHLF cells were plated in 96 well tissue culture (Corning) plates. Cells were incubated overnight in FGM-2 medium prior to exposure to compound. Cells were pretreated with 5 mM N-acetyl cysteine for 1 hr. Cells were treated with either DMSO or compound for 6 h. Preparation of cell lysates was carried out according to Quantigene Reagent system 2.0 protocol (Panomics). Heme oxygenase mRNA induction was detected from cell lysate using the Quantigene Plex 2.0 Assay Kit (Panomics) on the Luminex platform (BIO-RAD). Expression of GAPDH mRNA was used as the internal control for the Quantigen Plex 2.0 Assay. Heme oxygenase data represents the fold change, normalized to control values, above DMSO treated cells.
A further test of the hypothesis that Compound 13 induces HMOX1 with minimal alteration of cellular redox levels or chemical reactivity was carried out by treating cells with N-acetyl cysteine (NAC). This compound acts to restore cellular glutathione levels and thus prevent oxidative stress. The degree to which NAC can suppress HMOX1 induction is an indicator of the amount of chemical reactivity or ROS stress that a compound is imposing on the cell and thus activating phase II gene transcription. […] Coupled with the data shown in FIG. 3, it is concluded that Compound 13 induces HMOX1 with minimal elevation of ROS or NAC-sensitive chemical reactivity.

NHLF cells [6] = test: ROS measurements (H2DCF-DA imaging); assay type: cell-based, human; settings: 1 hr, cell-by-cell imaging, FIG. 3A/3B
Description: Secondary growth of NHLF cells were used for all assays. Cells were cultured as above. Cells were plated into 384-well BD-Optilux Plates at 2,000 cells/well and cultured overnight at 37° C. and 5% CO2. The following day, cell were washed and 2,7-dihydrodichlorofluorescin diacetate (H2DCF-DA), 10 μM ferric ammonium citrate (FAC), and Hoechst stain were added to cells for 30 min. The cells were washed once with PBS to remove any H2DCF-DA not taken up by cells. Test compounds were prepared in FBM-2 media at the desired concentrations. The plates and stain-treated cells were incubated with test compounds for 1 hr at 37° C. and 5% CO2. Following the incubation period, ROS generation was determined by imaging the cells on a GE INcell 1000 imager (Hoechst Ex. 360 Em. 535; H2DCF-DA 488 Ex. 480 Em. 535). ROS levels were determined and quantified using GE IN Cell Analyzer Software.
In addition to gene profiling, the requirement for ROS generation or chemical reactivity was tested. ROS generation was measured using an automated imaging technique. Compound 13 as well as two other compounds that were found in the screening set were tested in this experiment. Untreated NHLF cells, NHLF cells treated with the HMOX1 inducer CoPP (a negative control), and NHLF cells treated with curcumin or celestrol (positive controls) were included as controls. […] Further experiments were also conducted on chemical derivatives of Compound 13. In those experiments, all compounds tested were found not to induce an elevation of ROS levels in the cell (FIG. 3B). Thus, Compound 13 and related compounds represent a class of agents that elevate HMOX1 production without elevating ROS production.

| Structure (SMILES) | luciferase activity of HMOX1 mARE reporter (human Bach1) | HMOX1 induction by Western blotting (HMOX1 [1]) | HMOX1 induction (HMOX1 [2]) | protection against cisplatin toxicity (NHLF cells [3]) | inhibition of adipogenesis (Oil Red staining) [4] | HMOX1 mRNA induction with siRNA directed to Nrf2 (Nrf2) | effect of N-acetyl cysteine (NAC) on HMOX1 induction (HMOX1 [5]) | ROS production (in words) (NHLF cells [6]) |
| --- | --- | --- | --- | --- | --- | --- | --- | --- |
| CNC(=O)c1ccc2[nH]c(Nc3nc4ccc(OC(F)(F)F)cc4s3)nc2c1 [Compound 7, 2-(6-Trifluoromethoxy-benzothiazol-2-ylamino)-1H-benzoimidazole-5-carboxylic acid methylamide] | able to induce luciferase activity in the presence or absence of Bach1 protein expression; also recorded: can overcome this repression | – | – | – | – | – | – | – |
| CN(C)C(=O)CNC(=O)c1ccc2c(c1)nc(Nc1nc3ccc(OC(F)(F)F)cc3s1)n2C [Compound 9, 1-Methyl-2-(6-trifluoromethoxy-benzothiazol-2-ylamino)-1H-benzoimidazole-5-carboxylic acid dimethylcarbamoylmethyl-amide] | – | induced HMOX1 | induced HMOX1 | near-total cellular protection; also recorded: protect the cells from CDDP-mediated toxicity | suppress Oil-O red staining; also recorded: inhibited stem cell differentiation | – | – | – |
| Cn1c(Nc2nc3ccc(OC(F)(F)F)cc3s2)nc2cc(C(=O)NCCOCCO)ccc21 [Compound 10, 1-Methyl-2-(6-trifluoromethoxy-benzothiazol-2-ylamino)-1H-benzoimidazole-5-carboxylic acid [2-(2-hydroxy-ethoxy)-ethyl]-amide] | – | induced HMOX1 | induced HMOX1 | near-total cellular protection; also recorded: protect the cells from CDDP-mediated toxicity | suppress Oil-O red staining; also recorded: inhibited stem cell differentiation | – | – | – |
| Cn1c(Nc2nc3ccc(Cl)cc3s2)nc2cc(C(=O)NCC(=O)O)ccc21 [Compound 12, {[2-(6-Chloro-benzothiazol-2-ylamino)-1-methyl-1H-benzoimidazole-5-carbonyl]-amino}-acetic acid] | – | failed to induce HMOX1 | inactive HMOX1 inducers; also recorded: did not induce HMOX1 | failed to protect NHLF cells against cisplatin toxicity; also recorded: failed to protect cells from CDDP-mediated cytotoxicity | fails to inhibit adipogenesis; also recorded: failed to do so | – | – | – |
| CC(C)(C)N1C(=O)C=C(c2cccc(N(CC(=O)c3ccc(Cl)cc3Cl)C(=O)Cc3ccc(Br)cc3)c2)S1(=O)=O [Compound 14, 2-(4-Bromo-phenyl)-N-[3-(2-tert-butyl-1,1,3-trioxo-2,3-dihydro-1H-isothiazol-5-yl)-phenyl]-N-[2-(2,4-dichloro-phenyl)-2-oxo-ethyl]-acetamide] | – | – | – | – | – | affected by the presence of the siRNA for Nrf2; also recorded: requires Nrf2 for full induction of HMOX1 mRNA | inhibited nearly fully by NAC; also recorded: fully suppressed in the presence of NAC | elevated ROS levels to a greater degree than did Compound 13; also recorded: little increase in ROS production |
| CC(C)(C)N1C(=O)C=C(c2cccc(-n3cc(-c4ccc(Cl)cc4Cl)nc3Cc3ccc(Br)cc3)c2)S1(=O)=O [Compound 15, 5-{3-[2-(4-Bromo-benzyl)-4-(2,4-dichloro-phenyl)-imidazol-1-yl]-phenyl}-2-tert-butyl-1,1-dioxo-1,2-dihydro-isothiazol-3-one] | – | – | – | – | – | affected by the presence of the siRNA for Nrf2; also recorded: requires Nrf2 for full induction of HMOX1 mRNA | inhibited nearly fully by NAC; also recorded: fully suppressed in the presence of NAC | elevated ROS levels to a greater degree than did Compound 13; also recorded: little increase in ROS production |
